SMILES strings stand for the structures.

On to `Cc1cccc(C(O)COc2ccc(CC3SC(=O)NC3=O)cc2)n1` (centres undefined), for which the melting point (usually the temperature, or range, at which the solid turns liquid) lay in the range of 154 to 155 °C.
The value for `Cn1c(-c2ccc(-c3cccs3)cc2)cnc1[C@H](Cc1ccccn1)N(C=O)c1cc2cc(Cl)ccc2o1` was 110 to 114 °C; that for `C(=CCN(CC1CCCCC1)CC1CCCCC1)CN(CC1CCCCC1)CC1CCCCC1` was 72 to 73 °C.
The same measure for `O=S(=O)(Nc1cccc(CCOCc2ccc(-c3ccc(Cl)cc3)cc2)c1)C(F)(F)F`: 69 to 70 °C; for `Cn1c(=O)nc(-c2ccccc2)c2cc(Cl)sc21`: 136 to 140 °C; for `COc1ccc(CCNC(=O)CC(NC(=O)CCNC(=O)c2ccc(C(=N)N)cc2)C(=O)O)cc1` (centres undefined): 217 °C.
For `CCOC(=O)CC(C#N)(CC(=O)OCC)c1ccc(Cl)c(Cl)c1`, the melting point was in the range of 69 to 71 °C.
Compound `CC(C)(C)OC(=O)NOCCC(=O)Oc1c(F)c(F)c(F)c(F)c1F` displayed a melting point of 58 to 59 °C.
With `CC1(C)C(=O)N(c2ccnc(NC(=O)NCc3ccccn3)c2)c2ccccc21`, the melting point lay within 191 to 192 °C.
Regarding `O=c1[nH]c2ccccc2cc1CN1CC=C(Cc2ccccc2)CC1`, the melting point was 155 to 158 °C.
As to `Cc1c(C(=O)C23CC4CC(CC(C4)C2)C3)oc2cc(F)ccc12`, the melting point fell in the range of 107 to 109 °C.
The same measure for `CC(=O)Oc1ccc(-c2c(C)c3ccc(F)cc3oc2=O)c(OC(C)=O)c1`: 148 to 149 °C; for `CCCc1c(OCC#CCSCCO)ccc(C(C)=O)c1O`: 52 to 53 °C; for `CC(C)(C)NCP(=O)(O)O`: 295 °C.
The value for `OCc1c(Cl)cc(Cl)cc1C(O)(Cn1ccnc1)c1ccc(Cl)cc1Cl` (centres undefined) was 208 to 211 °C.
For the compound `Cn1c2ccc(-c3nnn[nH]3)cc2c(=O)c2cccnc21`, the melting point stood at 321 °C.
For the compound `Cc1cc(/C=[N+](\[O-])C(C)C)cc(C)c1O`, the melting point was in the range of 201 to 203 °C.
The compound `COC(=O)C(C)(C)Cc1c(SC(C)(C)C)c2cc(OCc3ccc4ccccc4n3)ccc2n1Cc1ccc(Cl)cc1` registered a melting point of 166 to 167 °C.
`Cc1c(-c2ccc(OC3CCCC3)cc2)n(Cc2ccc(OCCO)cc2)c2ccc(OCc3ccccc3)cc12` came in with a melting point of 129 to 131 °C.
The value for `COc1ccccc1-n1c(=O)[nH]c2cccnc21` was 130 °C.
The same measure for `CCN(CC)CCCCC1CCN(CCNC(=O)N2c3cc(Cl)ccc3C(=O)Nc3cccnc32)CC1`: 157 °C; for `COc1ccc(-c2nc3n(c2-c2cccnc2)CCC3)cc1`: 164 to 165 °C.
The same measure for `COc1ccc2cc(C(C)=CC(=O)O)cc(F)c2c1`: 214 to 217 °C; for `ON=C1c2ccccc2CCC1c1ccccc1` (centres undefined): 156 to 157 °C.
Compound `Cc1nc(N)c2nc(C)n(CCOCCNC(=O)N3CCOCC3)c2c1C` had a melting point of 205 to 207 °C.
The same measure for `CCOC(=O)c1cc2c(C(F)(F)F)cc(CO)cc2n1C`: 158 to 159 °C; for `NCCc1ccc(-n2nc(C(F)(F)F)cc2C(F)(F)F)cc1`: 54 °C.
The value for `Nc1c(O)c2ccccc2oc1=O` was 400 °C; that for `NC(=O)CNC(=O)c1cc(-c2ccc(F)c3cc(Cc4cc(F)cc(Cl)c4)sc23)ccc1F` was 148 to 150 °C.
On to `COc1ccccc1N1CCN(CCCNC(=O)c2cccc3c(=O)c(C)c(C4CC4)oc23)CC1`, for which the melting point lay in the range of 139 to 141 °C.
The value for `CCCCCC(=O)N1CCN2C[C@@H](c3ccccc3)c3ccccc3[C@@H]2C1` (relative stereo) was 163 to 164 °C; that for `CCOC(=O)c1cnn(-c2ccc(OCC(C)(C)C(=O)OC)c(C#N)c2)c1` was 95 to 96 °C.
The value for `CCN(CC)c1ccc(C2(c3c(C)n(CC)c4ccccc34)OC(=O)c3ccccc32)c(N(CC)CC)c1` (centres undefined) was 139 to 140 °C.
The same measure for `O=C(Cl)c1ccccc1SCc1ccccc1`: 113 to 116 °C.

The values are drawn from a melting point compilation (Tetko et al.; mined from patent text by program, amines drawn as free bases though some values may be those of a salt).
